# How the values were obtained:
# SF-539 = assay: NCI in vitro cancer screen, CNS Cancer; assay type: cell-based; conditions: SF-539; for GI50 / CC50: Homo sapiens; for CC50: read-out: LC50 (the source's name)
# HOP-62 = assay: NCI in vitro cancer screen, Non-Small Cell Lung Cancer; assay type: cell-based, human; conditions: HOP-62; for GI50 / CC50: Homo sapiens; for CC50: read-out: LC50 (the source's name)
# 786-0 = assay: NCI in vitro cancer screen, Renal Cancer; assay type: cell-based, human; conditions: 786-0
# ADR-RES (NCI/ADR-RES) = assay: NCI in vitro cancer screen, Ovarian Cancer; assay type: cell-based, human; conditions: for TGI: ADR-RES; for GI50 / CC50: Homo sapiens, NCI/ADR-RES; for CC50: read-out: LC50 (the source's name)
# HCT-116 = assay: NCI in vitro cancer screen, Colon Cancer; assay type: cell-based, human; conditions: HCT-116
# SF-268 = assay: NCI in vitro cancer screen, CNS Cancer; assay type: cell-based, human; conditions: SF-268; for GI50 / CC50: Homo sapiens; for CC50: read-out: LC50 (the source's name)
# HOP-92 = assay: NCI in vitro cancer screen, Non-Small Cell Lung Cancer; assay type: cell-based, human; conditions: HOP-92; for GI50 / CC50: Homo sapiens; for CC50: read-out: LC50 (the source's name)
# HCT-15 = assay: NCI in vitro cancer screen, Colon Cancer; assay type: cell-based, human; conditions: HCT-15; for GI50 / CC50: Homo sapiens; for CC50: read-out: LC50 (the source's name)
# RPMI-8226 = assay: NCI in vitro cancer screen, Leukemia; assay type: cell-based, human; conditions: RPMI-8226; for GI50 / CC50: Homo sapiens; for CC50: read-out: LC50 (the source's name)
# EKVX = assay: NCI in vitro cancer screen, Non-Small Cell Lung Cancer; assay type: cell-based, human; conditions: for GI50 / CC50: Homo sapiens; for CC50: read-out: LC50 (the source's name)
# HCC-2998 = assay: NCI in vitro cancer screen, Colon Cancer; assay type: cell-based, human; conditions: HCC-2998; for GI50 / CC50: Homo sapiens; for CC50: read-out: LC50 (the source's name)
# NCI-H226 = assay: NCI in vitro cancer screen, Non-Small Cell Lung Cancer; assay type: cell-based, human; conditions: NCI-H226
# UACC-257 = assay: NCI in vitro cancer screen, Melanoma; assay type: cell-based, human; conditions: UACC-257; for GI50 / CC50: Homo sapiens; for CC50: read-out: LC50 (the source's name)
# SN12C = assay: NCI in vitro cancer screen, Renal Cancer; assay type: cell-based, human; conditions: for GI50 / CC50: Homo sapiens; for CC50: read-out: LC50 (the source's name)
# A498 = assay: NCI in vitro cancer screen, Renal Cancer; assay type: cell-based, human; conditions: A498; for GI50 / CC50: Homo sapiens; for CC50: read-out: LC50 (the source's name)
# OVCAR-4 = assay: NCI in vitro cancer screen, Ovarian Cancer; assay type: cell-based, human; conditions: OVCAR-4; for GI50 / CC50: Homo sapiens; for CC50: read-out: LC50 (the source's name)
# HS 578T = assay: NCI in vitro cancer screen, Breast Cancer; assay type: cell-based, human; conditions: for GI50 / CC50: Homo sapiens; for CC50: read-out: LC50 (the source's name)
# LOX IMVI = assay: NCI in vitro cancer screen, Melanoma; assay type: cell-based, human; conditions: for GI50 / CC50: Homo sapiens; for CC50: read-out: LC50 (the source's name)
# HL-60 (TB) = assay: NCI in vitro cancer screen, Leukemia; assay type: cell-based, human; conditions: HL-60 (TB); for GI50 / CC50: Homo sapiens; for CC50: read-out: LC50 (the source's name)
# IGROV1 = assay: NCI in vitro cancer screen, Ovarian Cancer; assay type: cell-based, human; conditions: IGROV1; for GI50 / CC50: Homo sapiens, IGROV-1; for CC50: read-out: LC50 (the source's name)
# [1] = tested on: MDA-MB-231 (MDA-MB-231/ATCC); assay: NCI in vitro cancer screen, Breast Cancer; assay type: cell-based, human; conditions: MDA-MB-231; for GI50 / CC50: Homo sapiens; for CC50: read-out: LC50 (the source's name)
# NCI-H522 = assay: NCI in vitro cancer screen, Non-Small Cell Lung Cancer; assay type: cell-based, human; conditions: NCI-H522; for GI50 / CC50: Homo sapiens; for CC50: read-out: LC50 (the source's name)
# M14 = assay: NCI in vitro cancer screen, Melanoma; assay type: cell-based, human; conditions: M14; for GI50 / CC50: Homo sapiens; for CC50: read-out: LC50 (the source's name)
# COLO 205 = assay: NCI in vitro cancer screen, Colon Cancer; assay type: cell-based, human; conditions: COLO 205; for GI50 / CC50: Homo sapiens; for CC50: read-out: LC50 (the source's name)
# CAKI-1 = assay: NCI in vitro cancer screen, Renal Cancer; assay type: cell-based, human; conditions: CAKI-1; for GI50 / CC50: Homo sapiens; for CC50: read-out: LC50 (the source's name)
# MALME-3M = assay: NCI in vitro cancer screen, Melanoma; assay type: cell-based, human; conditions: for GI50 / CC50: Homo sapiens, Malme-3M; for CC50: read-out: LC50 (the source's name); for TGI: MALME-3M
# MOLT-4 = assay: NCI in vitro cancer screen, Leukemia; assay type: cell-based, human; conditions: MOLT-4; for GI50 / CC50: Homo sapiens; for CC50: read-out: LC50 (the source's name)
structure (smiles),measurement,setting,value
"CC(C)=CCc1c(O)cc(/C=C/c2ccc(O)cc2)c(CC=C(C)C)c1O [USYDS6, (E)-2,4-di(3-methyl-2-buten-1-yl)-3,4′,5-trihydroxystilbene]",GI50,SF-539,4.48 µM
same,CC50,SF-539,57.1 µM
same,TGI,SF-539,17.6 µM
same,TGI,HOP-62,17.5 µM
same,GI50,HOP-62,5.11 µM
same,CC50,HOP-62,44 µM
same,TGI,786-0,6.96 µM
same,GI50,786-0; Homo sapiens,2.46 µM
same,TGI,ADR-RES (NCI/ADR-RES),15.2 µM
same,GI50,ADR-RES (NCI/ADR-RES),3.46 µM
same,CC50,ADR-RES (NCI/ADR-RES),51.2 µM
same,TGI,HCT-116,3.78 µM
same,GI50,HCT-116; Homo sapiens,1.89 µM
same,GI50,SF-268,2.78 µM
same,CC50,SF-268,44.3 µM
same,TGI,SF-268,8.97 µM
same,TGI,HOP-92,4.67 µM
same,GI50,HOP-92,1.86 µM
same,CC50,HOP-92,14.5 µM
same,TGI,HCT-15,6.26 µM
same,GI50,HCT-15,2.13 µM
same,CC50,HCT-15,48.2 µM
same,GI50,RPMI-8226,2.34 µM
same,CC50,RPMI-8226,62 µM
same,TGI,RPMI-8226,5.61 µM
same,TGI,EKVX,21.4 µM
same,GI50,EKVX,7.19 µM
same,CC50,EKVX,54.4 µM
same,TGI,HCC-2998,8.78 µM
same,GI50,HCC-2998,2.81 µM
same,CC50,HCC-2998,32.2 µM
same,GI50,NCI-H226; Homo sapiens,1.47 µM
same,TGI,NCI-H226,30.1 µM
same,GI50,UACC-257,3.49 µM
same,CC50,UACC-257,39.8 µM
same,TGI,UACC-257,14.4 µM
same,TGI,SN12C,7.98 µM
same,GI50,SN12C,2.85 µM
same,CC50,SN12C,30.8 µM
same,TGI,A498,25.0 µM
same,GI50,A498,11.7 µM
same,CC50,A498,53.1 µM
same,GI50,OVCAR-4,4.4 µM
same,CC50,OVCAR-4,43.5 µM
same,TGI,OVCAR-4,16.1 µM
same,TGI,HS 578T,5.29 µM
same,GI50,HS 578T,1.67 µM
same,CC50,HS 578T,35.8 µM
same,TGI,LOX IMVI,3.42 µM
same,GI50,LOX IMVI,1.76 µM
same,CC50,LOX IMVI,6.68 µM
same,TGI,HL-60 (TB),4.83 µM
same,GI50,HL-60 (TB),2.07 µM
same,CC50,HL-60 (TB),15.4 µM
same,GI50,IGROV1,5.23 µM
same,CC50,IGROV1,54.1 µM
same,TGI,IGROV1,17.7 µM
same,GI50,[1],1.72 µM
same,CC50,[1],17.2 µM
same,TGI,[1],4.54 µM
same,GI50,NCI-H522,2.18 µM
same,CC50,NCI-H522,17.8 µM
same,TGI,NCI-H522,5.15 µM
same,GI50,M14,2.82 µM
same,CC50,M14,33.4 µM
same,TGI,M14,8.46 µM
same,TGI,COLO 205,30.2 µM
same,GI50,COLO 205,16 µM
same,CC50,COLO 205,57.2 µM
same,TGI,CAKI-1,22.6 µM
same,GI50,CAKI-1,8.37 µM
same,CC50,CAKI-1,55.7 µM
same,GI50,MALME-3M,2.8 µM
same,CC50,MALME-3M,37.1 µM
same,TGI,MALME-3M,8.56 µM
same,GI50,MOLT-4,1.59 µM
same,CC50,MOLT-4,16.8 µM
same,TGI,MOLT-4,4.27 µM
"COc1cc(O)cc(/C=C/c2ccc(O)c(O)c2)c1CC=C(C)C [USYDS9, (E)-2-(3-methyl-2-buten-1-yl)-3′,4′,5-trihydroxy-3-methoxystilbene]",GI50,SF-539,0.28 µM
same,CC50,SF-539,> 100 µM
same,TGI,SF-539,1.02 µM
same,TGI,HOP-62,>100 µM
same,GI50,HOP-62,2.87 µM
same,CC50,HOP-62,> 100 µM
same,TGI,786-0,18.7 µM
same,GI50,786-0; Homo sapiens,2.99 µM
same,LC50 (50% net cell kill),786-0; Homo sapiens,> 100 µM
same,TGI,ADR-RES (NCI/ADR-RES),3.69 µM
same,GI50,ADR-RES (NCI/ADR-RES),0.29 µM
same,CC50,ADR-RES (NCI/ADR-RES),> 100 µM
same,TGI,HCT-116,12.8 µM
same,GI50,HCT-116; Homo sapiens,1.4 µM
same,LC50 (concentration killing 50% of cells),HCT-116; Homo sapiens,75 µM
same,GI50,SF-268,0.63 µM
same,CC50,SF-268,> 100 µM
same,TGI,SF-268,37.6 µM
same,TGI,HOP-92,>100 µM
same,GI50,HOP-92,0.62 µM
same,CC50,HOP-92,> 100 µM
same,TGI,HCT-15,>100 µM
same,GI50,HCT-15,0.43 µM
same,CC50,HCT-15,> 100 µM
same,GI50,RPMI-8226,0.45 µM
same,CC50,RPMI-8226,> 100 µM
same,TGI,RPMI-8226,>100 µM
same,TGI,EKVX,>100 µM
same,GI50,EKVX,26.4 µM
same,CC50,EKVX,> 100 µM
same,TGI,HCC-2998,21.2 µM
same,GI50,HCC-2998,4.18 µM
same,CC50,HCC-2998,> 100 µM
same,GI50,NCI-H226; Homo sapiens,18.6 µM
same,LC50 (50% lethal concentration),NCI-H226; Homo sapiens,> 100 µM
same,TGI,NCI-H226,57.9 µM
same,GI50,UACC-257,6.15 µM
same,CC50,UACC-257,> 100 µM
same,TGI,UACC-257,59.2 µM
same,TGI,SN12C,83.5 µM
same,GI50,SN12C,1.76 µM
same,CC50,SN12C,> 100 µM
same,TGI,A498,53.5 µM
same,GI50,A498,10.3 µM
same,CC50,A498,> 100 µM
same,GI50,OVCAR-4,5.48 µM
same,CC50,OVCAR-4,> 100 µM
same,TGI,OVCAR-4,>100 µM
same,TGI,HS 578T,0.73 µM
same,GI50,HS 578T,0.2 µM
same,CC50,HS 578T,> 100 µM
same,TGI,LOX IMVI,58.6 µM
same,GI50,LOX IMVI,0.64 µM
same,CC50,LOX IMVI,> 100 µM
same,TGI,HL-60 (TB),0.43 µM
same,GI50,HL-60 (TB),0.2 µM
same,CC50,HL-60 (TB),0.95 µM
same,GI50,IGROV1,4.57 µM
same,CC50,IGROV1,> 100 µM
same,TGI,IGROV1,>100 µM
same,GI50,[1],0.38 µM
same,CC50,[1],> 100 µM
same,TGI,[1],2.61 µM
same,GI50,NCI-H522,0.15 µM
same,CC50,NCI-H522,44.8 µM
same,TGI,NCI-H522,0.45 µM
same,GI50,M14,0.3 µM
same,CC50,M14,> 100 µM
same,TGI,M14,5.69 µM
same,TGI,COLO 205,83.6 µM
same,GI50,COLO 205,21.7 µM
same,CC50,COLO 205,> 100 µM
same,TGI,CAKI-1,>100 µM
same,GI50,CAKI-1,19.1 µM
same,CC50,CAKI-1,> 100 µM
same,GI50,MALME-3M,0.62 µM
same,CC50,MALME-3M,> 100 µM
same,TGI,MALME-3M,>100 µM
same,GI50,MOLT-4,1.27 µM
same,CC50,MOLT-4,> 100 µM
same,TGI,MOLT-4,6.77 µM

# Source: US10696615B2, “Prenylated hydroxystilbenes” (The University of Sydney, priority 2011, dated 2020)
